Results as given in the NIST ThermoML archive (doi:10.1016/j.jct.2016.10.007).

Legend:
[1] = Wilhemy plate method
[2] = wn = mass fraction of the nth substance listed; conditions: Wilhemy plate method

CCN(CC)CCO [(diethylamino)ethanol]
[1]
Conditions	surface tension liquid-gas [mN/m]
283.2 K	29.7
293.2 K	28.6
303.2 K	27.7
313.2 K	26.4
323.2 K	25.2

CCN(CC)CCO [(diethylamino)ethanol] + O
surface tension liquid-gas [mN/m], [2]
Conditions	303.2 K	313.2 K	323.2 K
w1 = 0.1	41.2	39.2	37.3
w1 = 0.137	40.1	–	–
w1 = 0.2	36.5	34.7	33.1
w1 = 0.213	36.3	–	–
w1 = 0.3	34.9	33.2	31.7
w1 = 0.4	33.6	32.1	30.7
w1 = 0.483	32.9	–	–
w1 = 0.5	32.7	31.2	29.9
w1 = 0.58	31.8	–	–
w1 = 0.6	31.3	29.8	28.3
w1 = 0.685	30.7	–	–
w1 = 0.7	30.3	28.7	27.3
w1 = 0.8	29.6	28	26.6
w1 = 0.814	29.5	–	–
w1 = 0.9	28.7	27.3	26
w1 = 0.91	28.6	–	–
w1 = 1	27.7	26.4	25.2

O [water]
Conditions	surface tension liquid-gas [mN/m]
[1], 298.2 K	71.9
